In patent publication US6982348B2, “Aminoethanol derivatives” (Takeda Pharmaceutical Company Limited, priority 2001, dated 2006):

SMILES | melting point [°C]
COc1cccc([C@H](O)[C@@H](Cc2cccc(OC(F)(F)C(F)F)c2)NC(=O)c2cccc3c2C=CCCC3)c1 (racemic) [Example 253, N-{(1RS,2SR)-2-hydroxy-2-(3-methoxyphenyl)-1-[3-(1,1,2,2-tetrafluoroethoxy)benzyl]ethyl}-6,7-dihydro-5H-benzo[a][7]annulene-1-carboxamide] | 155 to 156
O=C(CBr)N[C@H](Cc1ccc(C(F)(F)F)cc1)[C@@H](O)c1ccc(F)cc1 (racemic) [Example 78, 2-bromo-N-((1RS,2SR)-2-(4-fluorophenyl)-2-hydroxy-1-((4-(trifluoromethyl)phenyl)methyl)ethyl)acetamide] | 151 to 152
COc1ccc(-c2ccc([C@H](O)[C@@H](Cc3cccc(OC(F)(F)C(F)F)c3)NC(=O)c3cccc4c3C=CCCC4)cc2)cc1 (racemic) [Example 297, N-[(1RS,2SR)-2-hydroxy-2-(4′-methoxy[1,1′-biphenyl]-4-yl)-1-[3-(1,1,2,2-tetrafluoroethoxy)benzyl]ethyl]-6,7-dihydro-5H-benzo[a]cycloheptene-1-carboxamide] | 162 to 163
O=C(N[C@H](Cc1cccc(OC(F)(F)C(F)F)c1)[C@@H](O)c1ccc(Oc2cccnc2)cc1)c1ccc(F)c2ccccc12 (racemic) [Example 262, 4-fluoro-N-{(1RS,2SR)-2-hydroxy-2-[4-(pyridin-3-yloxy)phenyl]-1-[3-(1,1,2,2-tetrafluoroethoxy)benzyl]ethyl}-1-naphthamide] | 183 to 184
O=C(N[C@H](Cc1cccc(CC(F)(F)C(F)F)c1)[C@@H](O)c1ccc(F)cc1)c1cccc2c1C=CCCC2 (racemic) [Example 338, N-[(1RS,2SR)-2-(4-fluorophenyl)-2-hydroxy-1-[3-(2,2,3,3-tetrafluoropropyl)benzyl]ethyl]-6,7-dihydro-5H-benzo[a]cycloheptene-1-carboxamide] | 165 to 166
O=S(=O)(N[C@H](Cc1ccc(C(F)(F)F)cc1)[C@@H](O)c1ccc(F)cc1)c1cccc2ccccc12 (racemic) [Example 117, N-((1RS,2SR)-2-(4-fluorophenyl)-2-hydroxy-1-((4-(trifluoromethyl)phenyl)methyl)ethyl)-1-naphthalenesulfonamide] | 176 to 177
O=C(N[C@H](Cc1ccccc1C(F)(F)F)[C@@H](O)c1ccc(F)cc1)C1CCCCC1 (racemic) [Example 142, N-((1RS,2SR)-2-(4-fluorophenyl)-2-hydroxy-1-((2-(trifluoromethyl)phenyl)methyl)ethyl)cyclohexanecarboxamide] | 216 to 217
CC(C)(C)OC(=O)N[C@H](Cc1ccc(C(F)(F)F)cc1)[C@H](O)c1ccc(F)cc1 (racemic) [Example 24, 1,1-dimethylethyl(1RS,2RS)-2-(4-fluorophenyl)-2-hydroxy-1-((4-(trifluoromethyl)phenyl)methyl)ethylcarbamate] | 95 to 96
CC(C)(C)OC(=O)NCC(=O)O[C@H](c1ccc(F)cc1)[C@H](Cc1cccc(OC(F)(F)C(F)F)c1)NC(=O)c1ccc(F)c2ccccc12 (racemic) [Example 390, N-(tert-butoxycarbonyl)glycine (1RS,2SR)-2-[(4-fluoro-1-naphthoyl)amino]-1-(4-fluorophenyl)-3-[3-(1,1,2,2-tetrafluoroethoxy)phenyl]propyl ester] | 126 to 127
O=C(N[C@H](Cc1cccc(OC(F)(F)C(F)F)c1)[C@@H](O)c1ccc(-c2cccc(CO)c2)cc1)c1cccc2c1C=CCCC2 (racemic) [Example 303, N-[(1RS,2SR)-2-[3′-(hydroxymethyl)[1,1′-biphenyl]-4-yl]-2-hydroxy-1-[3-(1,1,2,2-tetrafluoroethoxy)benzyl]ethyl]-6,7-dihydro-5H-benzo[a]cycloheptene-1-carboxamide] | 178 to 179
O=C(NC(Cc1ccc(C(F)(F)F)cc1)C(O)c1ccc(F)cc1)C1CCCCC1 (racemic) [Example 8, N-[2-(4-fluorophenyl)-2-hydroxy-1-[[4-(trifluoromethyl)phenyl]methyl]ethyl]cyclohexanecarboxamide] | 161 to 178
CC(C)(C)Oc1ccc(C[C@@H](NC(=O)c2cccc3c(Cl)cccc23)[C@@H](O)c2cccc(Cl)c2)cc1 (racemic) [Example 278, N-[(1RS,2SR)-1-(4-tert-butoxybenzyl)-2-(3-chlorophenyl)-2-hydroxyethyl]-5-chloro-1-naphthamide] | 132 to 133
O=C(N[C@H](Cc1ccc(C(F)(F)F)cc1)[C@@H](O)c1ccc(F)cc1)c1cccc2c(F)cccc12 (racemic) [Example 32, 5-fluoro-N-[(1RS,2SR)-2-(4-fluorophenyl)-2-hydroxy-1-[4-(trifluoromethyl)benzyl]ethyl]naphthalene-1-carboxamide] | 222 to 224
O=Cc1cccc(-c2ccc([C@H](O)[C@@H](Cc3cccc(OC(F)(F)C(F)F)c3)NC(=O)c3cccc4c3C=CCCC4)cc2)c1 (racemic) [Example 300, N-[(1RS,2SR)-2-(3′-formyl[1,1′-biphenyl]-4-yl)-2-hydroxy-1-[3-(1,1,2,2-tetrafluoroethoxy)benzyl]ethyl]-6,7-dihydro-5H-benzo[a]cycloheptene-1-carboxamide] | 103 to 105
CC(C)(C)Cc1ccc(C[C@@H](NC(=O)c2cccc3c2C=CCCC3)[C@@H](O)c2cccc(Cl)c2)cc1 (racemic) [Example 344, N-[(1RS,2SR)-2-(3-chlorophenyl)-2-hydroxy-1-(4-neopentylbenzyl)ethyl]-6,7-dihydro-5H-benzo[a]cycloheptene-1-carboxamide] | 147 to 149
O=C(N[C@H](Cc1ccc(F)cc1)[C@@H](O)c1ccc(C(F)(F)F)cc1)c1ccc(F)c2ccccc12 (racemic) [Example 213, 4-fluoro-N-((1RS,2SR)-1-((4-fluorophenyl)methyl)-2-hydroxy-2-(4-(trifluoromethyl)phenyl)ethyl)-1-naphthalenecarboxamide] | 235 to 236
O=C(N[C@H](Cc1ccc(C(F)(F)F)cc1)[C@@H](O)c1cccc(Oc2ccccc2)c1)c1ccc(F)c2ccccc12 (racemic) [Example 207, N-((1RS,2SR)-2-hydroxy-2-(3-phenoxyphenyl)-1-((4-(trifluoromethyl)phenyl)methyl)ethyl)-4-fluoro-1-naphthalenecarboxamide] | 184 to 185
N#CC(c1ccc([C@H](O)[C@@H](Cc2cccc(OC(F)(F)C(F)F)c2)NC(=O)c2cccc3c2C=CCCC3)cc1)N1CCCCC1 (mixture of isomers) [Example 327, N-[(1RS,2SR)-2-[4-[cyano(piperidino)methyl]phenyl]-2-hydroxy-1-[3-(1,1,2,2-tetrafluoroethoxy)benzyl]ethyl]-6,7-dihydro-5H-benzo[a]cycloheptene-1-carboxamide] | 152 to 154
O=C(CCCc1ccccc1)N[C@H](Cc1ccc(F)cc1)[C@@H](O)c1ccc(C(F)(F)F)cc1 (racemic) [Example 215, N-((1RS,2SR)-1-((4-fluorophenyl)methyl)-2-hydroxy-2-(4-(trifluoromethyl)phenyl)ethyl)-4-phenylbutyramide] | 155 to 156
O=C(N[C@H](Cc1ccc(C(F)(F)F)cc1)[C@@H](O)c1ccc(F)cc1)c1ccc(F)c2c1CCCC2 (racemic) [Example 31, 4-fluoro-N-[(1RS,2SR)-2-(4-fluorophenyl)-2-hydroxy-1-[4-(trifluoromethyl)benzyl]ethyl]-5,6,7,8-tetrahydronaphthalene-1-carboxamide] | 241 to 242
O=C(N[C@H](Cc1ccc(CC(F)(F)C(F)(F)F)cc1)[C@@H](O)c1cccc(Cl)c1)c1cccc2c(Cl)cccc12 (racemic) [Example 375, 5-chloro-N-{(1RS,2SR)-2-(3-chlorophenyl)-2-hydroxy-1-[4-(2,2,3,3,3-pentafluoropropyl)benzyl]ethyl}-1-naphthamide] | 216 to 217
O=C(N[C@H](Cc1cccc(CC(F)(F)C(F)F)c1)[C@@H](O)c1ccc(F)cc1)c1ccc(F)c2ccccc12 (racemic) [Example 339, 4-fluoro-N-[(1RS,2SR)-2-(4-fluorophenyl)-2-hydroxy-1-[3-(2,2,3,3-tetrafluoropropyl)benzyl]ethyl]naphthalene-1-carboxamide] | 172 to 173
O=C(N[C@H](Cc1ccc(C(F)(F)F)cc1)[C@@H](O)c1ccc(F)cc1)c1csc2ccccc12 (racemic) [Example 46, N-[(1RS,2SR)-2-(4-fluorophenyl)-2-hydroxy-1-[4-(trifluoromethyl)benzyl]ethyl]-1-benzothiophene-3-carboxamide] | 188 to 189
O=C(N[C@H](Cc1ccc(C(F)(F)F)cc1)[C@@H](O)c1ccc(F)cc1)c1cccc2cc3ccccc3cc12 (racemic) [Example 66, N-((1RS,2SR)-2-(4-fluorophenyl)-2-hydroxy-1-((4-(trifluoromethyl)phenyl)methyl)ethyl)-1-anthracenecarboxamide] | 227 to 228
O=C(CCCc1cccs1)N[C@H](Cc1ccc(C(F)(F)F)cc1)[C@@H](O)c1cccc2ccccc12 (racemic) [Example 191, N-((1RS,2SR)-2-hydroxy-2-(1-naphthalenyl)-1-((4-(trifluoromethyl)phenyl)methyl)ethyl)-4-(2-thienyl)butyramide] | 139 to 140
CC(=CC(=O)N[C@H](Cc1ccc(C(F)(F)F)cc1)[C@@H](O)c1ccc(F)cc1)C(F)(F)F (racemic) [Example 49, 4,4,4-trifluoro-N-[(1RS,2SR)-2-(4-fluorophenyl)-2-hydroxy-1-[4-(trifluoromethyl)benzyl]ethyl]-3-methyl-2-butenamide] | 182 to 183
O=C(N[C@H](Cc1ccc(C(F)(F)F)cc1)[C@@H](O)c1ccc(F)cc1)c1cccc2cccnc12 (racemic) [Example 80, N-((1RS,2SR)-2-(4-fluorophenyl)-2-hydroxy-1-((4-(trifluoromethyl)phenyl)methyl)ethyl)-8-quinolinecarboxamide] | 83 to 84
COc1ccc(C(=O)NC(Cc2ccc(C(F)(F)F)cc2)C(O)c2ccc(F)cc2)cc1 (racemic) [Example 7, N-[2-(4-fluorophenyl)-2-hydroxy-1-[[4-(trifluoromethyl)phenyl]methyl]ethyl]-4-methoxybenzamide] | 174 to 176
